Groups on a side chain read outwards from the residue. No end group written: not given here.

The target in data set [1] is T1, insulin-degrading enzyme (IDE) (Homo sapiens, UniProt P14735).
T1 construct: purchased R&D Systems
T1 sequence (P14735 1-1019): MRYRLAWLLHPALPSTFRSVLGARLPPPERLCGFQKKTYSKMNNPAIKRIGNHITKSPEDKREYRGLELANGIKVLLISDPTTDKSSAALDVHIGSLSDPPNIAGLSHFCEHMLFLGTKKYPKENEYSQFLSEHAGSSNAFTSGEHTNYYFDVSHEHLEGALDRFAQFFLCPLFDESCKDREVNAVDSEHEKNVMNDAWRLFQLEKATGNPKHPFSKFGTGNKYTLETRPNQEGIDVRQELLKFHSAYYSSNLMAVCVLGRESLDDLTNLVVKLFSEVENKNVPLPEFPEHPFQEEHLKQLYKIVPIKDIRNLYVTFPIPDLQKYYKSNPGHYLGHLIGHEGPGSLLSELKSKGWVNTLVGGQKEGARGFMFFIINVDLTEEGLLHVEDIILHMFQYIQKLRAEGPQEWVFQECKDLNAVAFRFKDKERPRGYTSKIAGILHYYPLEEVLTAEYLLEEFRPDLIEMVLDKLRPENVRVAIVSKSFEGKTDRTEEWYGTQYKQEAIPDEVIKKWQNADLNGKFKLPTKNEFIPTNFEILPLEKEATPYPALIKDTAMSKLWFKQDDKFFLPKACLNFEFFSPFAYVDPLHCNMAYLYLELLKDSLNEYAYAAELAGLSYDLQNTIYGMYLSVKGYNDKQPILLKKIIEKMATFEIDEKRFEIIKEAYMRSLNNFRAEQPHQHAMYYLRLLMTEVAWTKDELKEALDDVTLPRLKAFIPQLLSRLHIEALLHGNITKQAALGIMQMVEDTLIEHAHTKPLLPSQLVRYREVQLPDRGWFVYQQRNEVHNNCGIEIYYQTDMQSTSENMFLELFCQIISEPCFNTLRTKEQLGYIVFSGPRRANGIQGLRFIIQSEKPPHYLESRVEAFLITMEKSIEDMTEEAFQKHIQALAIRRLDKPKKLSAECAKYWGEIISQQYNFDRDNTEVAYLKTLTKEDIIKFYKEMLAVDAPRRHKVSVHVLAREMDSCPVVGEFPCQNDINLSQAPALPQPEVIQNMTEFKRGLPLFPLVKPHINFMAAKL
The data set can be described thus: In vitro degradation by insulin-degrading enzyme, MALDI-TOF time course. The class given is in vitro ADME.
Method: Reactions were performed in 50 mM Tris, 0.05% Brij-35, pH 9 (Neprilysin), or 50 mM Tris, 20 mM NaCl, pH 7.5 (IDE) and incubated at 37° C.

The subject of a further data set is male Sprague Dawley rats. The data set is described as follows: Acute cardiovascular and renal actions of i.v. infusion in anesthetized rats. The class given is in vivo. Particulars: rat. An excerpt:
The protocol is outlined in FIG. 9A.
Rats were then subjected to vessel and bladder cannulation for peptide infusion, BP measurement, blood sampling and urine collection. A polyethylene (PE)-5G tube catheter was placed into the jugular vein for inulin, peptide intravenous infusion. The carotid artery was cannulated with a PE-50 tube catheter for BP measurement (Sonometrics, London, Ontario, Canada) and blood sampling. The bladder was accessed and cannulated with a PE-50 tube catheter for passive urine collection. After completion of the above procedural set up, a 45 min equilibration period was performed that included continuous IV inulin and saline infusion. After the 45 min equilibration period, baseline (Time==Q min) parameters were recorded and one blood sampling (0.7 ml) was performed. The inulin and saline infusion was replaced by a continuous intravenously (i.v.) infusion of equimolar ANP-Ser19/ST or ANP-Ser25/ST for 60 min. The infusion rate was weight adjusted and equals weight*0.7/6000 ml/min. After 60 min infusion (Time=60 min), another blood sampling (0.7 ml) was conducted. […] Urine was collected at the end of the infusion (Time=60 min) and the study (Time=90 min). Urinary sodium was measured with pHOx Ultra (Nova Biomedical, Waltham, Mass.). Urine flow (UV) and urinary sodium excretion (UNaV) were calculated as urine volume or sodium clearance per min, Inulin concentrations were measured with enthrone method and inulin clearance was used for GFR quantification. Urinary cGMP and ANP excretion rate was calculated based on raw values obtained in the urine and UV.

Another data set addresses T2, VIP/PACAP receptor VPAC1 (UniProt P32241 31-457).
T2 sequence (looked up): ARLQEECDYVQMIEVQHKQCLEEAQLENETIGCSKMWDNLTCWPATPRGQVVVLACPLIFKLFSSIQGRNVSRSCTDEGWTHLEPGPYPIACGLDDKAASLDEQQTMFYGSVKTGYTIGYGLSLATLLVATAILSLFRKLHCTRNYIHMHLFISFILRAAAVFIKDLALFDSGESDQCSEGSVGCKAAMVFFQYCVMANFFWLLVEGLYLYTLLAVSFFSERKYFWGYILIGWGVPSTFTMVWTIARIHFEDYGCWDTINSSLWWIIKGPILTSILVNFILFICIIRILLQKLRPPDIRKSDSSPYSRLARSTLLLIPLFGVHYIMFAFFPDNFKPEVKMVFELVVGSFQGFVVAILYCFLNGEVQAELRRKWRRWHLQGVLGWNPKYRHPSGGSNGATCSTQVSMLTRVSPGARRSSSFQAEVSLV
The data set can be described thus: cell-based or functional assay.

A further data set addresses T3, VIP/PACAP receptor VPAC2 (UniProt P41587 24-438).
T3 sequence (looked up): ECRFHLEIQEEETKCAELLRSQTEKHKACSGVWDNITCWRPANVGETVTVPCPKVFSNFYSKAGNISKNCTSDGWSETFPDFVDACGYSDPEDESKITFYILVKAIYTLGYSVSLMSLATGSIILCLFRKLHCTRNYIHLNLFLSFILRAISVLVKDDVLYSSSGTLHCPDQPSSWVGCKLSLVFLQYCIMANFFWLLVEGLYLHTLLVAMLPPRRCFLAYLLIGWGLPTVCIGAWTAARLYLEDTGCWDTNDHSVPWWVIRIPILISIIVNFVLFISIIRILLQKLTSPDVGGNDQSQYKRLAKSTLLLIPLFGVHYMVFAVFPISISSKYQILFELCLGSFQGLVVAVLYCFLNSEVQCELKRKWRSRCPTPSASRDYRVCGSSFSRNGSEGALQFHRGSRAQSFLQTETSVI
The data set is described as follows: cell-based or functional assay.

Where [2] appears, read: 600 pmol/kg/min i.v., 60 minutes infusion.

For the molecule `CC[C@H](C)[C@@H]1NC(=O)[C@H](CCCNC(=N)N)NC(=O)[C@H](CC(=O)O)NC(=O)[C@H](CCSC)NC(=O)[C@H](CCCNC(=N)N)NC(=O)CNC(=O)CNC(=O)[C@H](Cc2ccccc2)NC(=O)[C@@H](NC(=O)[C@H](CO)NC(=O)[C@H](CO)NC(=O)[C@H](CCCNC(=N)N)NC(=O)[C@H](CCCNC(=N)N)NC(=O)[C@H](CC(C)C)NC(=O)[C@@H](N)CO)CSSC[C@@H](C(=O)N[C@@H](CC(N)=O)C(=O)N[C@@H](CO)C(=O)N[C@@H](Cc2ccccc2)C(=O)N[C@@H](CCCNC(=N)N)C(=O)N[C@@H](Cc2ccc(O)cc2)C(=O)O)NC(=O)CNC(=O)[C@H](CC(C)C)NC(=O)CNC(=O)[C@H](CO)NC(=O)[C@H](CCC(N)=O)NC(=O)[C@H](C)NC(=O)CNC1=O` [ANP, Atrial natriuretic factor, reference compound], the “time to complete degradation by insulin-degrading enzyme” value in data set [1] is on record as not above 15 min. The “UV after a clearance period of 30 minutes” value in the data set on male Sprague Dawley rats is given as “normalized”. Besides, in the data set on male Sprague Dawley rats (setting [2]), the “change in mean arterial pressure (MAP) over the infusion period” value was “decrease” and the “change in plasma cGMP over the infusion period” value is given as “increase”. Further, in the data set with male Sprague Dawley rats (after 60 min infusion), the “MAP in the 30 minutes clearance period” value is on record as “rebounded”.
As to HSDAVFT([GalNAc-Gal-NeuAc])DNYTRLRKQMAVKKYLNSILN [VIP with ST O-glycan at Thr7], the “potency, cAMP accumulation (HTRF)” value is 74 nM in the data set with VIP/PACAP receptor VPAC1 and 244 nM in the data set with VIP/PACAP receptor VPAC2.
HSDAVFT(GalNAc)DNYTRLRKQMAVKKYLNSILN [VIP with one O-glycan (GalNAc/Tn) at residue 7]: the “potency, cAMP accumulation (HTRF)” value turned out to be 102 nM with VIP/PACAP receptor VPAC1 and 242 nM with VIP/PACAP receptor VPAC2.

(Values after patent publication US20210171598A1, “PEPTIDE HORMONE WITH ONE OR MORE O-GLYCANS” (priority 2017, published 2021).)
